How the values were obtained:
[1] = tested on: Protein Kinase C (PKC); conditions: cited from earlier work
[2] = tested on: MCF7 CMV-fLuc subclones #44 and #48; experiment: PKC activator dose response, cap-dependent translation (fLuc); type: cell-based, human
Experimental: Following 6 hr exposure to the Single-Toxin TPA assay, cells were lysed and fLuc protein activity measured using a standard microplate reader assay. The raw values were averaged and expressed as the ratio of treated to untreated samples (Fold Induction).
Dashed lines represent translational response levels produced by a 100 nM TPA Single-Toxin assay. The Bryostatin 1 concentrations (top panel) encompassed the TPA concentrations used in FIG. 27A. […] The Bryostatin 2 dose response curve (bottom panel) employed higher drug concentrations (the maximal tested dose was 5× the largest TPA and Bryostatin 1 amounts). At the highest tested dose (2.5 uM), Bryostatin 2 produced fLuc activity consistent with the level observed with 100 nM TPA.
In addition to measuring cap-dependent and cap-independent translational effects, Class-specific translational activity and toxin-defined actions, the previously described materials and methods allow for a variety of applications designed to detect and characterize agents and processes that regulate ribosome activity. In this example, comparative dose response assays were used to detect cap-dependent and cap-independent translational regulation in MCF7 cells. The basis for this application was the observation that distinct translational responses are produced by compounds at different doses. When an assortment of compounds act on a common molecular target, they can be grouped into a genus of related drugs. By comparing individual species of a compound genus over a defined dose range, differences in translational regulation can be defined. Furthermore, these translational differences can often be linked to biological differences.
In this example (FIG. 27), the three PKC activators produced similar dose response trends in cap-dependent assays. […] However, macrolide lactones produced translational increases that were generally 60-70% of the TPA translational response (FIG. 27B). In fact, a 25 fold increase in Bryostatin 2 concentration (2.5 uM) was needed to produce a translational magnitude similar to the 100 nM TPA assay (FIG. 27B).

[3] = tested on: MCF7 mTRdm-fLuc subclones #8, #27, and #45; experiment: PKC activator dose response, cap-independent TR translation (fLuc); type: cell-based, human
Experimental: Following 6 hr culture with a TPA single-Toxin assay, cells were lysed and fLuc protein activity measured using a standard microplate reader assay. The plate reader values were averaged and expressed as the ratio of treated to untreated samples (Fold Induction).
As with FIG. 27B, dashed lines represent translational response levels achieved by the 100 nM TPA assay in each cell line. […] A further difference between the cap-dependent and cap-independent assays was the observation that increased Bryostatin 2 concentrations (5× the maximal TPA dose) never produced fLUC activity equivalent to the 100 nM TPA assay. Thus, the Toxin Assay procedure can detect a statistically significant difference in cap-dependent and cap-independent translation in compounds that activate PKC activity.
In the cap-independent assays, a similar dose response trend was observed over a 1 nM to 250 nM range with a translational peak at a 100 nM dose. However, the magnitude of the Bryostatin increases were generally 30% of 100 nM TPA response.

[4] = tested on: HCT116 mTRdm-fLUC cells; experiment: 5-Assay / 15-Assay toxin assays, fLUC plate reader (Fold Induction); type: cell-based, human; conditions: 5-Assay, 6 hr, HCT116 mTRdm-fLUC 12-16 subclone #38
Experimental: The 5-Assay and 15-Assay procedures were applied to cellular pools using either of two growth procedures (e.g. a Cell Count or Confluence growth assay). For a Cell Count assay, cells from the P1 pool dish were counted and passed into a white clear bottom 96-well microtiter tray at a density of 25,000 cells per well; the leftover cells were passed into a passage 2 (P2) dish. Cells in the microtiter plate were allowed to grow for about 40 hr to achieve a ˜75% cell confluence prior to incubation with a toxic agent. Then cells in a microtiter plate were treated with complete growth medium containing either no toxin or an optimal toxin, defined as a single or multiple toxin assay that produces a maximal translational response (taken from Table 3) and incubated for 6 hours at 37° C. Each treatment was performed on triplicate wells.
After toxin incubation, cells were examined by phase contrast microscopy for signs of detachment. If more than ˜10% of cells were detached, the 96-well plates were centrifuged at 1200 rpm for 3 min to pellet the detached cells. The media were removed and replaced with 50 μL of Cell Lysis Buffer (25 mM Tris-phosphate (pH7.8), 10% glycerol, 1% Triton X-100, 1 mg/ml BSA, 2 mM EGTA and 2 mM DTT). Cells were incubated with the Cell Lysis Buffer for 10 min at RT and cell lysis was verified using a phase contrast microscope. To ensure complete lysis, the lysates were vigorously agitated using the multichannel pipettor. Any air bubbles formed as a result of agitation were manually removed with a syringe needle. Luminescence was measured using the FLUOstar Optima (BMG Labtech) microplate reader. To develop luminescence, wells were injected with 5 μL of the D-luciferin solution dissolved in Reaction Buffer (25 mM Glycylglycine (pH 7.8), 15 mM MgSO4, 4 mM EDTA, 15 mM Potassium phosphate, 1 mM DTT, 1 mM Coenzyme A, 6.7 mM ATP and 3.35 mM D-luciferin). After 4 sec with shaking, luminescence values were measured using the lens filter at gains of 2500-4000.
Light values were converted to Fold Induction using the ratio of values produced by treated and untreated cells. The maximal TR-specific translational response produced by the 5-Toxin or 15-Toxin assay was used to assign an optimal toxin assay (maximal translational response) which was subsequently used to screen subclones derived from this pool and to assign a Class designation. […]
In one test, the 5-Assay procedure (Table 3) was applied to HCT116 mTRdm-fLUC 12-16 subclone #30 cells (FIG. 1A). […] Samples were then processed with Lysis buffer and read in a plate reader. […]
Triplicate samples of HCT116 mTRdm-fLUC 12-16 Sub#30 cells were cultured with the two-Toxin assays using a standard plate reader protocol (FIG. 1C). […]

[5] = tested on: HEK293 hTRdm-fLuc #53 and HEK293 mTRdm-fLuc #12 subclones; experiment: Microtubule disruptor single-Toxin dose response, cap-independent; type: cell-based, human; conditions: cap-dependent and cap-independent assays
Experimental: The plate reader values were averaged and expressed as the ratio of treated to untreated samples (Fold Induction). Highly similar TR expression profile were produced by the human (hTRdm, top panel) and the mouse (mTRdm, bottom panel) TR cassettes. […] In contrast, significant increases in reporter activity were only observed at nocodazole concentrations greater than 250 nM. As in the cap-dependent assay, taxol-specific reporter increases were only observed at the 2.5 uM and 5 uM doses.
Highly similar cap-independent translational profiles were produced by each TR-expressing cell line (FIGS. 29B and C). […] This contrasted with the nocodazole responses, where significant increases were observed only at concentrations larger than 250 nM. As before, taxol-specific translational increases were only observed at the 2.5 uM and 5 uM doses.

[6] = tested on: HEK293 CMV-fLuc subclone #3; experiment: Updated 15-Assay / 21-Assay, cap-dependent translational responses; type: cell-based, human; conditions: 21-Assay, single-Toxin (Unknown), 6 hr
From the text: (§1) The dashed line represents the level of translational response in the untreated samples.
Following 6 hr exposure to the compounds, cells were lysed and fLuc protein activity measured using a standard microplate reader assay. The triplicate plate reader values were averaged and expressed as the ratio of treated to untreated samples (Fold Induction). The dashed line represents the level of translational response in the untreated samples.
The 21-Assay procedure employs the same standard toxins as the Updated 15-Assay protocol. The extra 6 assays involve an unknown or an uncharacterized compound and its pairwise combinations with the five toxins: Unknown, Unknown+TPA, Unknown+Colchcine, Unknown+Bortezomib (Velcade), Unknown+Low dose Calon, and Unknown+Hycamtin (Topotecan).
Application of single-Toxin and two-Toxin assays in the Updated 15-Assay protocol was used to define cap-dependent translational responses in the HEK293 CMV-fLuc #3 subclone (FIG. 30A).
The combinatorial process described in this example provides a system for testing translational regulation by unknown compounds. In this example, a 21-Assay setup is described that employs the single and pairwise combinatorial application of 5 toxins, as in a standard 15-Toxin assay, and the addition of a sixth substance. Inclusion of the sixth substance requires the expansion of the assay group to a total of 21 single- and two-Toxin assays. For this example, a control substance (taxol) was selected from the original 15-Assay system.

[7] = tested on: HEK293 mTRdm-fLuc subclone #13 and HEK293 hTRdm-gLuc subclone #79; experiment: Updated 15-Assay / 21-Assay, TR translational responses (fLuc, gLuc); type: cell-based, human; conditions: 21-Assay, subclone #13, taxol as Unknown
Experimental: as §1
As before, secreted Gaussia Luciferase (gLUC) activity was measured in conditioned media 6 hr after drug application and protein activity expressed as the ratio of treated to untreated samples (Fold Induction). The dashed line represents the translational response in untreated cells.
The dashed line represents the translational response produced by untreated cell samples.
Following a 6 hr culture time, secreted gLuc activity was measured in conditioned media using a standard microplate reader assay and expressed as the ratio of treated to untreated samples (Fold Induction). The dashed line represents the level of translational response in the untreated samples. Given that the gLuc protein is secreted into the media, it escapes the cytoplasmic protein turnover processes acting on the fLUC protein. Therefore, any difference in the apparent TR response is a likely result of variation in reporter protein synthesis, secretion or reduced protein turnover.
The 21-Assay procedure employs the same standard toxins as the Updated 15-Assay protocol. The extra 6 assays involve an unknown or an uncharacterized compound and its pairwise combinations with the five toxins: Unknown, Unknown+TPA, Unknown+Colchcine, Unknown+Bortezomib (Velcade), Unknown+Low dose Calon, and Unknown+Hycamtin (Topotecan). […]

| Molecule | inhibition constant (Ki) relative to the Ki of Bryostatin 1 [1] [×] | fold increase in concentration needed for translational magnitude similar to the 100 nM TPA assay [2] [fold] | dose producing fLuc activity consistent with the level observed with 100 nM TPA ([2]; single-Toxin, highest tested dose) [µM] | % of the 100 nM TPA response ([3]; dose 2.5 uM) [%] | magnitude of translational response versus 100 nM TPA tests ([3]; single-Toxin) | TR-specific toxin response [4] | response profile compared with other microtubule disruptor drugs [5] | effect on cap-dependent fLuc protein production [6] | effect on fLUC activity [7] |
| --- | --- | --- | --- | --- | --- | --- | --- | --- | --- |
| Bryostatin 2 | 10 | 25 | 2.5 | ~50 | never reached the fLuc activity produced in 100 nM TPA tests | – | – | – | – |
| CC(=O)O[C@H]1C(=O)[C@@]2(C)[C@H]([C@H](OC(=O)c3ccccc3)[C@]3(O)C[C@H](OC(=O)[C@H](O)[C@@H](NC(=O)c4ccccc4)c4ccccc4)C(C)=C1C3(C)C)[C@]1(OC(C)=O)CO[C@@H]1C[C@@H]2O [Taxol, Paclitaxel] | – | – | – | – | – | Maximal TR-specific toxin responses | smallest response profile of all the microtubule disruptor drugs tested | minimal effect on cap-dependent fluc protein production | small synergistic increases in fLUC activity in the single-Toxin and the colchicine+taxol, calcimycin+taxol, bortezomib+taxol two-Toxin assays, but not in the TPA+taxol or topotecan+taxol assays |

— US9388405B2, “Method for identifying a subpopulation of mammalian cells with distinctive ribosome translation profiles” (priority 2009, dated 2016)
